ChEMBL document CHEMBL3826915, “Design and comparative anticonvulsant activity assessment of CNS-active alkyl-carbamoyl imidazole derivatives” (Bioorg Med Chem, 2016)
Active and inactive are the calls of the source.

Assays:
[1] = tested on: Mus musculus; experiment: Neurotoxicity in albino CF1 mouse assessed as behavioral impairment at 100 mg/kg, ip after 0.25 hrs by rotorod test; type: toxicity, organism-based; details: in vivo
[2] = tested on: Mus musculus; experiment: Neurotoxicity in albino CF1 mouse assessed as behavioral impairment at 30 mg/kg, ip after 2 hrs by rotorod test; type: toxicity, organism-based; details: in vivo
[3] = tested on: Mus musculus; experiment: Anticonvulsant activity in ip dosed albino CF1 mouse assessed as protection against maximal electroshock-induced seizures by measuring time to peak effect; type: functional
[4] = tested on: Mus musculus; experiment: Anticonvulsant activity in ip dosed albino CF1 mouse assessed as protection against subcutaneous metrazol-induced seizures by measuring time to peak effect; type: functional
[5] = Protective index, ratio of TD50 for neurotoxicity in ip dosed albino Sprague-Dawley rat to ED50 for anticonvulsant activity in ip dosed maximal electroshock-induced seizure albino Sprague-Dawley rat model; type: toxicity, organism-based; details: in vivo, read-out: Ratio TD50/ED50
[6] = tested on: Mus musculus; experiment: Anticonvulsant activity in ip dosed albino CF1 mouse assessed as protection against subcutaneous metrazol-induced seizures; type: functional
[7] = tested on: Rattus norvegicus; experiment: Anticonvulsant activity in albino Sprague-Dawley rat assessed as protection against maximal electroshock-induced seizures at 30 mg/kg, po after 2 hrs; type: functional, organism-based
[8] = tested on: Rattus norvegicus; experiment: Anticonvulsant activity in albino Sprague-Dawley rat assessed as protection against maximal electroshock-induced seizures at 30 mg/kg, po after 0.5 hrs; type: functional, organism-based
[9] = tested on: Rattus norvegicus; experiment: Anticonvulsant activity in albino Sprague-Dawley rat assessed as protection against maximal electroshock-induced seizures at 30 mg/kg, po after 1 hr; type: functional, organism-based
[10] = tested on: Rattus norvegicus; experiment: Neurotoxicity in albino Sprague-Dawley rat assessed as behavioral impairment at 30 mg/kg, ip after 2 hrs by rotorod test; type: toxicity, organism-based; details: in vivo
[11] = tested on: Rattus norvegicus; experiment: Anticonvulsant activity in ip dosed albino Sprague-Dawley rat assessed as protection against subcutaneous metrazol-induced seizures; type: functional
[12] = Neurotoxicity in ip dosed albino Sprague-Dawley rat assessed as motor impairment by rotorod test; type: toxicity, organism-based; details: in vivo
[13] = tested on: Mus musculus; experiment: Neurotoxicity in albino CF1 mouse assessed as behavioral impairment at 30 mg/kg, ip after 0.5 hrs by rotorod test; type: toxicity, organism-based; details: in vivo
[14] = tested on: Mus musculus; experiment: Neurotoxicity in albino CF1 mouse assessed as behavioral impairment at 100 mg/kg, ip after 1 hr by rotorod test; type: toxicity, organism-based; details: in vivo
[15] = tested on: Rattus norvegicus; experiment: Neurotoxicity in albino Sprague-Dawley rat assessed as behavioral impairment at 30 mg/kg, po after 0.25 hrs by rotorod test; type: toxicity, organism-based; details: in vivo
[16] = tested on: Mus musculus; experiment: Anticonvulsant activity in albino CF1 mouse assessed as protection against 44 mA current-induced seizure at 100 mg/kg, ip after 0.25 hrs by 6 Hz psychomotor test; type: functional, organism-based
[17] = tested on: Mus musculus; experiment: Anticonvulsant activity in albino CF1 mouse assessed as protection against maximal electroshock-induced seizures at 100 mg/kg, ip after 0.5 hrs; type: functional, organism-based
[18] = tested on: Mus musculus; experiment: Anticonvulsant activity in albino CF1 mouse assessed as protection against 32 mA current-induced seizure at 30 mg/kg, ip after 2 hrs by 6 Hz psychomotor test; type: functional, organism-based
[19] = tested on: Mus musculus; experiment: Anticonvulsant activity in albino CF1 mouse assessed as protection against maximal electroshock-induced seizures at 30 mg/kg, ip after 2 hrs; type: functional, organism-based
[20] = tested on: Rattus norvegicus; experiment: Neurotoxicity in albino Sprague-Dawley rat assessed as behavioral impairment at 30 mg/kg, ip after 0.25 hrs by rotorod test; type: toxicity, organism-based; details: in vivo
[21] = tested on: Mus musculus; experiment: Anticonvulsant activity in albino CF1 mouse assessed as protection against 44 mA current-induced seizure at 100 mg/kg, ip after 2 hrs by 6 Hz psychomotor test; type: functional, organism-based
[22] = tested on: Mus musculus; experiment: Anticonvulsant activity in albino CF1 mouse assessed as protection against 32 mA current-induced seizure at 100 mg/kg, ip after 0.5 hrs by 6 Hz psychomotor test; type: functional, organism-based
[23] = tested on: Rattus norvegicus; experiment: Anticonvulsant activity in ip dosed albino Sprague-Dawley rat assessed as protection against maximal electroshock-induced seizures; type: functional
[24] = tested on: Mus musculus; experiment: Anticonvulsant activity in albino CF1 mouse assessed as protection against maximal electroshock-induced seizures at 100 mg/kg, ip after 2 hrs; type: functional, organism-based
[25] = tested on: Rattus norvegicus; experiment: Neurotoxicity in albino Sprague-Dawley rat assessed as behavioral impairment at 30 mg/kg, ip after 1 hr by rotorod test; type: toxicity, organism-based; details: in vivo
[26] = tested on: Rattus norvegicus; experiment: Neurotoxicity in albino Sprague-Dawley rat assessed as behavioral impairment at 30 mg/kg, ip after 0.5 hrs by rotorod test; type: toxicity, organism-based; details: in vivo
[27] = tested on: Mus musculus; experiment: Anticonvulsant activity in albino CF1 mouse assessed as protection against 32 mA current-induced seizure at 30 mg/kg, ip after 0.5 hrs by 6 Hz psychomotor test; type: functional, organism-based
[28] = Neurotoxicity in ip dosed albino CF1 mouse assessed as motor impairment by rotorod test; type: toxicity, organism-based; details: in vivo
[29] = tested on: Rattus norvegicus; experiment: Anticonvulsant activity in ip dosed albino Sprague-Dawley rat assessed as protection against subcutaneous metrazol-induced seizures by measuring time to peak effect; type: functional
[30] = tested on: Rattus norvegicus; experiment: Neurotoxicity in albino Sprague-Dawley rat assessed as behavioral impairment at 30 mg/kg, po after 1 hr by rotorod test; type: toxicity, organism-based; details: in vivo
[31] = tested on: Rattus norvegicus; experiment: Anticonvulsant activity in albino Sprague-Dawley rat assessed as protection against maximal electroshock-induced seizures at 30 mg/kg, po after 0.25 hrs; type: functional, organism-based
[32] = Protective index, ratio of TD50 for neurotoxicity in ip dosed albino Sprague-Dawley rat to ED50 for anticonvulsant activity in ip dosed subcutaneous metrazol-induced seizure albino Sprague-Dawley rat model; type: toxicity, organism-based; details: in vivo, read-out: Ratio TD50/ED50
[33] = tested on: Rattus norvegicus; experiment: Anticonvulsant activity in ip dosed albino Sprague-Dawley rat assessed as protection against maximal electroshock-induced seizures by measuring time to peak effect; type: functional
[34] = Protective index, ratio of TD50 for neurotoxicity in ip dosed albino CF1 mouse to ED50 for anticonvulsant activity in ip dosed 6 Hz current-induced seizure albino CF1 mouse model; details: in vivo
[35] = tested on: Mus musculus; experiment: Neurotoxicity in albino CF1 mouse assessed as behavioral impairment at 100 mg/kg, ip after 2 hrs by rotorod test; type: toxicity, organism-based; details: in vivo
[36] = tested on: Rattus norvegicus; experiment: Neurotoxicity in albino Sprague-Dawley rat assessed as behavioral impairment at 30 mg/kg, po after 0.5 hrs by rotorod test; type: toxicity, organism-based; details: in vivo
[37] = tested on: Mus musculus; experiment: Neurotoxicity in albino CF1 mouse assessed as behavioral impairment at 100 mg/kg, ip after 0.5 hrs by rotorod test; type: toxicity, organism-based; details: in vivo
[38] = tested on: Mus musculus; experiment: Anticonvulsant activity in ip dosed albino CF1 mouse assessed as protection against 6 Hz current-induced seizures by psychomotor test; type: functional
[39] = tested on: Mus musculus; experiment: Anticonvulsant activity in ip dosed albino CF1 mouse assessed as protection against maximal electroshock-induced seizures; type: functional
[40] = tested on: Rattus norvegicus; experiment: Neurotoxicity in albino Sprague-Dawley rat assessed as behavioral impairment at 30 mg/kg, po after 2 hrs by rotorod test; type: toxicity, organism-based; details: in vivo
[41] = tested on: Mus musculus; experiment: Neurotoxicity in albino CF1 mouse assessed as behavioral impairment at 300 mg/kg, ip after 0.5 hrs by rotorod test; type: toxicity, organism-based; details: in vivo
[42] = tested on: Mus musculus; experiment: Anticonvulsant activity in ip dosed albino CF1 mouse assessed as protection against 6 Hz current-induced seizure by measuring time to peak effect; type: functional

CC(COC(=O)NCCCn1ccnc1)CC(C)(C)C (configuration not stated)
active: Activity [16] | Activity [17] | Activity [22] | Activity [24]
4.1: selectivity ratio [5]
0.5 h: Time [3] | Time [4] | Time [42]
70 mg/kg: TD50 [12]
> 70 mg/kg: ED50 [11]
Non-toxic: Activity [2] | Activity [10] | Activity [13] | Activity [14] | Activity [15] | Activity [20] | Activity [25] | Activity [26] | Activity [30] | Activity [35] | Activity [36] | Activity [40]
1: selectivity ratio [32]
inactive: ED50 [6] | Activity [7] | Activity [8] | Activity [9] | Activity [18] | Activity [19] | Activity [21] | Activity [27] | Activity [31] | ED50 [39]
1.4: selectivity ratio [34]
0.25 h: Time [29] | Time [33]
44 mg/kg: ED50 [38]
Toxic: Activity [1] | Activity [37] | Activity [41]
17 mg/kg: ED50 [23]
60 mg/kg: TD50 [28]
